Common to all, as to format: functional, cell-based
The target of experiment [1] is Solute carrier organic anion transporter family member 2A1 (Rattus norvegicus, UniProt Q00910). Briefly: (§1) TP_TRANSPORTER: inhibition of PGE2 uptake in PGT-expressing HeLa cells.
Experiment [2] concerns the target Solute carrier organic anion transporter family member 2A1 (Mus musculus, UniProt Q9EPT5). Described as §1.
The target in experiment [3] is Solute carrier organic anion transporter family member 2A1 (Homo sapiens, UniProt Q92959). The description is as §1.

SMILES strings stand for the structures.

Chain of Solute carrier organic anion transporter family member 2A1 (Mus musculus, UniProt Q9EPT5) (Q9EPT5 whole entry): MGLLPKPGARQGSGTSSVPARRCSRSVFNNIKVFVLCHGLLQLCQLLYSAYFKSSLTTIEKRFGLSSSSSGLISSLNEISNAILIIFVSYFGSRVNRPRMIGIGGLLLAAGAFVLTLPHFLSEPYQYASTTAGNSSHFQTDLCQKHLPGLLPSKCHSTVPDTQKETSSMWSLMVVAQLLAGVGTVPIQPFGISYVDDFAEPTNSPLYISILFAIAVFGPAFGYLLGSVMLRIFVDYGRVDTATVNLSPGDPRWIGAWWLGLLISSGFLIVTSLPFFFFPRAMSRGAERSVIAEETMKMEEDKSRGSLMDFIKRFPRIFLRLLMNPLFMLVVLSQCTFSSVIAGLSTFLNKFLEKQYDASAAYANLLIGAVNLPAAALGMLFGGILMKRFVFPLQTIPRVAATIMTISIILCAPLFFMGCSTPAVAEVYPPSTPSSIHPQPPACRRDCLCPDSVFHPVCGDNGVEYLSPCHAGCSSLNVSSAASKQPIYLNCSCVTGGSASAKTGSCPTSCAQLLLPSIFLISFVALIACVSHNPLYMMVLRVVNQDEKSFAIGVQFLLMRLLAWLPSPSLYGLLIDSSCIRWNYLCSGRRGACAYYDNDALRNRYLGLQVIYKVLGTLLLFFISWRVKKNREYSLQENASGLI

As usually defined, the Ki is the dissociation constant of the complex between target and ligand, obtained from inhibition or displacement. Read a high Ki as weaker binding. Take `CCCCC[C@H](O)/C=C/[C@@H]1[C@@H](C/C=C\CCCC(=O)O)[C@@H](O)C[C@H]1O` [DINOPROST]: the inhibitory constant (Ki) was 45 nM in experiment [1], 104 nM in experiment [2] and 23 nM in experiment [3].
For `CCCCC[C@H](O)/C=C/[C@H]1C(=O)C[C@H](O)[C@@H]1C/C=C\CCCC(=O)O` [PROSTAGLANDIN D2], in that order: 45 nM, 98 nM and 38 nM.

Source of the values: ChEMBL document CHEMBL2074268, “Cloning of mouse prostaglandin transporter PGT cDNA: species-specific substrate affinities” (Am J Physiol, 1999).
